Consider 2 molecules from patent publication US20240360107A1, “AN EIF4A INHIBITOR WITH A NOVEL MECHANISM OF ACTION” (ARIZONA BOARD OF REGENTS ON BEHALF OF THE UNIVERSITY OF …, priority 2021, published 2024).

Test [1] deals with BJAB Burkitt lymphoma cells. Nature of the test: CellTiter-Glo Luminescent Cell Viability assay. Format: cell-based. The settings on record: 72 h; for effect on BJAB cell viability: top concentration 10 uM. The procedure:
Compounds 1 and compound 28 were evaluated in a CellTiter-Glo (CTG) Luminescence cell viability assay in BJAB Burkitt lymphoma cells that are known to be sensitive to eIF4A inhibition. This assay quantitates the number of living, metabolically active cells by measuring their ATP levels.
Cell viability assay. BJAB lymphoma cells were plated in quadruplicate at 5,000 cells/well in serial dilutions of drug ranging two logs with the top concentration of compounds tested at 10 uM. Viability was measured after 72 h using Cell Titer Glo (Promega G7573) following the manufacturer's protocol. Luminescence was detected on the BioTek HT Synergy plate reader and values were normalized to vehicle-treated (DMSO) wells. Silvestrol was included as a positive control (not shown).

Test [2] has as its target T1, eIF4A (Homo sapiens, UniProt P60842). Briefly: kinetic testing using the malachite green assay (ATP and RNA titration). In kind it is biochemical. On the set-up: 6xHis with TEV protease site (N, cleaved yes); made in house; host or cells: E. coli BL21-CodonPlus. The settings on record: for Alpha value for ATP / Ki / Alpha value for RNA: mixed-model inhibition fit. The protocol: ATP titration (left) used 250 μg/mL RNA. Data were fit using unbiased mixed-model inhibition in Prism 6.0. Alpha value for ATP is 0.424, indicating an ATP-uncompetitive inhibitor. Kiapp for ATP is 10.3 μM. RNA titration (right) used 250 μM ATP. […] Kiapp for RNA is 9.59 μM. Data shown are an average of 3 independent experiments.
ATP titration (left) was done with 250 μg/mL RNA. Data were fit using unbiased mixed-model inhibition in Prism 6.0. Alpha value for ATP is 0.514, indicating an ATP-uncompetitive inhibitor. Kiapp for ATP=4.79 μM. RNA titration (right) was done with 250 μM ATP. […] Kiapp for RNA=4.27 μM. Data shown are an average of 3 independent experiments.
ATPase assay. Recombinant WT or mutant eIF4A was added to a clear bottom 384 well plate (Greiner) in ATPase buffer (20 mM Tris pH 7.4, 80 mM KCl, 2.5 mM MgCl2, 1 mM DTT, 1% glycerol). Compounds were added and the plate was incubated at 37° C. for 20 min. ATP/RNA solution was added to afford a 20 μL per well reaction volume with 750 nM eIF4A, 250 μM ATP, and 0.25 mg/mL Yeast RNA (Sigma) for the initial screen and dose responses, and varying concentrations of ATP and RNA for the kinetic assays. The plate was incubated for 4 h at 37° C. for the initial screen and dose responses, and at seven time points (1 hour-7 hours) for kinetic assays. 0.04% v/v (final concentration) Tween-20 was added to a Malachite Green solution, and the Malachite Green (40 μL per well) was added. The solution was incubated for 5 minutes at room temperature and Absorbance at 660 nm was read on a SpectraMax iD5 plate reader (Molecular Devices).

Test [3] concerns the target T1, eIF4A. Nature of the test: Helicase (duplex unwinding) assay. Format: biochemical. The arrangement: 6xHis with TEV protease site (N, cleaved yes); made in house; host or cells: E. coli BL21-CodonPlus. The following applies: Cy3-RNA/DNA duplex, 2.5 μM eIF4A, 2 mM ATP. The procedure:
A functional duplex unwinding assay with a duplex nucleic acid substrate was utilized to test if compound 1 and compound 28 could inhibit eIF4A helicase activity. This unwinding assay features a Cy3-labeled RNA strand annealed to a DNA strand with a long overhang that eIF4A can bind (FIG. 9, top right). When ATP is added to protein and substrate, eIF4A unwinds the duplex, leaving an unlabeled DNA strand and a Cy3-labeled single stranded RNA. When visualized on a native gel, the larger intact fluorescent duplex substrate will run higher on the gel than the smaller unwound single-stranded fluorescent RNA. The ratio of these two Cy3 signals can be used to determine the helicase activity of eIF4A in each condition.
Dose responses of compound 1 and compound 28 were conducted using this assay. […] The intensity of each band in each gel lane was quantified by densitometry to obtain IC50 values for compound 1 and compound 28 in this assay. […]
Helicase assay. […] All products were analyzed by electrophoresis on 20% native polyacrylamide (37.5:1 acrylamide:bisacrylamide) gels. Gels were run at 4° C. for 2 hours and Cy3 signal was detected on an Azure 600 Fluorescent Imaging System (Azure Biosystems) at 524 nm:572 nm (Ex:Em). Cy3 signal was quantified by gel band densitometry performed using ImageJ32 (NIH). IC50 values were calculated using GraphPad Prism v6.0.

Setting [4] is: ATP titration, 250 μg/mL RNA, read-out: Kiapp for ATP.
Setting [5] is: RNA titration, 250 μM ATP, read-out: Kiapp for RNA.

Entries after “also recorded” stand apart in the source; their conditions may differ. Like-named read-outs stand apart in the source and are kept apart here.

T1 sequence (P60842 whole entry): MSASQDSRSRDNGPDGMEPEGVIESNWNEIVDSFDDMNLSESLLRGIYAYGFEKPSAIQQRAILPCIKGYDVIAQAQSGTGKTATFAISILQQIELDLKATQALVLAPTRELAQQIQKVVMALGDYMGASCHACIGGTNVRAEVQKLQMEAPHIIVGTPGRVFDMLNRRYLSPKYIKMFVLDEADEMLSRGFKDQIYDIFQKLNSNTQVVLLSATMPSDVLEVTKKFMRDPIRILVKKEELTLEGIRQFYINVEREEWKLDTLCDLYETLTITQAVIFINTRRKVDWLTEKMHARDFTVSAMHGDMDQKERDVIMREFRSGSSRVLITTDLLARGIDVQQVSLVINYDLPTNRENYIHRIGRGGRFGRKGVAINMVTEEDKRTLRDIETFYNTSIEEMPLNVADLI

On to `CCCCc1ccc(-c2ccc(-c3cc(C(=O)O)c4cc(Br)ccc4n3)o2)cc1` [Compound 1, 6-bromo-2-(5-(4-butylphenyl)furan-2-yl)quinoline-4-carboxylic acid], for which the “effect on BJAB cell viability” value in test [1] was “decrease BJAB cell viability”. Moreover, in test [1] (Homo sapiens, CellTiter-Glo, n=4), the EC50 amounted to 2.13 ± 0.17 µM. At eIF4A [2], the “mechanism of inhibition with respect to ATP” value was “uncompetitive with respect to ATP”. The “mechanism of inhibition with respect to RNA” value on eIF4A [2] is reported as “RNA-competitive”. The “Alpha value for ATP” value on eIF4A [2] (ATP titration, 250 μg/mL RNA) came out at 0.424. The Ki on eIF4A [2] (setting [4]) came to 10.3 µM; on eIF4A [2] (setting [5]) it was 9.59 µM. The “Alpha value for RNA” value on eIF4A [2] (RNA titration, 250 μM ATP) was 4.53×10^13. Moreover, the “inhibition of eIF4A duplex unwinding” value against eIF4A [3] is on record as “inhibit eIF4A duplex unwinding”.
As to `CCCCc1ccc(-c2ccc(-c3cc(C(=O)O)c4cc([N+](=O)[O-])ccc4n3)o2)cc1` [Compound 28, 2-(5-(4-butylphenyl)furan-2-yl)-6-nitroquinoline-4-carboxylic acid], in test [1], the “effect on BJAB cell viability” value was “three to four times more potent than 1; also recorded: decrease BJAB cell viability”. Besides, the “mechanism of inhibition with respect to ATP” value at eIF4A [2] is “ATP-uncompetitive”. Also, on eIF4A [2], the “mechanism of inhibition with respect to RNA” value is “RNA-competitive”. For the same molecule, at eIF4A [2] (ATP titration, 250 μg/mL RNA), the “Alpha value for ATP” value was 0.514. Besides, the Ki at eIF4A [2] (setting [4]) was 4.79 µM; at eIF4A [2] (setting [5]), 4.27 µM. In addition, the “Alpha value for RNA” value at eIF4A [2] (RNA titration, 250 μM ATP) is 4.52×10^21. Moreover, on eIF4A [3], the “inhibition of eIF4A duplex unwinding” value is “about four-fold more potent than compound 1; also recorded: inhibit eIF4A duplex unwinding”.

One may read the EC50 as the concentration giving half of the maximal effect.
